Experiments:
[1] = test system: human mixed lymphocyte reaction; test: human mixed lymphocyte reaction (inhibition of 3H-thymidine incorporation); format: cell-based; conditions: for inhibition at 25 µM: Concentration of Solution 25 µM; for EC50: concentration which brings about 50% inhibition of ^3H-thymidine incorporation, read-out: Immunosuppressive activity ED50; for immunosuppressive activity compared with azathioprine: statement in words; for inhibition at 10 µM: Concentration of Solution 10 µM
Text: Fifteen of these compounds were screened for immunosuppressive activity by means of the human mixed lymphocyte reaction, which is well known and need not be further described here, the results of which are shown in Table 1.

Cn1cnc([N+](=O)[O-])c1Sc1nc2ccccc2[nH]1 [Compound 1] showed an inhibition at 36 µM ([1]; Homo sapiens, Lymphocyte, Concentration of Solution 36 µM) of 98%.

Cc1ccc2[nH]c(Sc3c([N+](=O)[O-])ncn3C)nc2c1 [Compound 2] was tested, and the inhibition at 25 µM ([1]; Homo sapiens, Lymphocyte) was 86%.

With Cn1cnc([N+](=O)[O-])c1Sc1nc2cc(F)c(Cl)cc2[nH]1 [Compound 4] the inhibition at 50 µM ([1]; Homo sapiens, Lymphocyte, Concentration of Solution 50 µM) was 59%.

Work on COc1cc2nc(Sc3c([N+](=O)[O-])ncn3C)[nH]c2cc1OC [Compound 5] yielded an inhibition at 25 µM ([1]; Homo sapiens, Lymphocyte) of 94%.

Work on COc1ccc(OC)c2[nH]c(Sc3c([N+](=O)[O-])ncn3C)nc12 [Compound 6] yielded an inhibition at 25 µM ([1]; Homo sapiens, Lymphocyte) of 41%.

Cn1cnc([N+](=O)[O-])c1Sc1nc2ccccc2o1 [Compound 8] gave an inhibition at 25 µM ([1]; Homo sapiens, Lymphocyte) of 87%.

Cn1cnc([N+](=O)[O-])c1Sc1nc2ccccc2s1 [Compound 9] was tested, and the inhibition at 25 µM ([1]; Homo sapiens, Lymphocyte) was 27%.

Cn1cnc([N+](=O)[O-])c1Sc1ncnc2[nH]c(O)nc12 [Compound 11] was tested, and the “toxicity to lymphocytes compared with azathioprine” value (lymphocytes) was “much less toxic to the lymphocytes”, the EC50 ([1]; Homo sapiens, Lymphocyte) was 24 µM and the “immunosuppressive activity compared with azathioprine” value [1] was “less immunosuppressive than azathioprine”.

Work on Cn1cnc([N+](=O)[O-])c1Sc1ccccc1C(=O)O [Compound 13] yielded an inhibition at 25 µM ([1]; Homo sapiens, Lymphocyte) of 34%.

Work on Cn1cnc([N+](=O)[O-])c1Sc1ccccn1 [Compound 15] yielded an inhibition at 25 µM ([1]; Homo sapiens, Lymphocyte) of 76%.

Cn1cnc([N+](=O)[O-])c1Sc1ncccn1 [Compound 16] was tested, and the inhibition at 25 µM ([1]; Homo sapiens, Lymphocyte) was 47%.

Work on CCn1c(C)nc([N+](=O)[O-])c1Sc1nc(C)cc(C)n1 [Compound 18] yielded an inhibition at 25 µM ([1]; Homo sapiens, Lymphocyte) of 47%.

Cn1cnc([N+](=O)[O-])c1Sc1nccc(O)n1 [Compound 19] showed an inhibition at 25 µM ([1]; Homo sapiens, Lymphocyte) of 29%.

For Cn1cnc([N+](=O)[O-])c1Sc1ncc[nH]1 [Compound 21], the “toxicity to lymphocytes compared with azathioprine” value (lymphocytes) was “considerably less toxic to lymphocytes”, the inhibition at 10 µM ([1]; Homo sapiens, Lymphocyte) was 89% and the EC50 ([1]; Homo sapiens, Lymphocyte) was 2.8 µM. For the same molecule, the “immunosuppressive activity compared with azathioprine” value [1] was “substantially more immunosuppressive than azathioprine”.

Cn1ccnc1Sc1c([N+](=O)[O-])ncn1C [Compound 22] was tested, and the “toxicity to lymphocytes compared with azathioprine” value (lymphocytes) was “considerably less toxic to lymphocytes”, the inhibition at 10 µM ([1]; Homo sapiens, Lymphocyte) was 82% and the EC50 ([1]; Homo sapiens, Lymphocyte) was 3.15 µM. For the same molecule, the “immunosuppressive activity compared with azathioprine” value [1] was “substantially more immunosuppressive than azathioprine”.

Work on CCOC(=O)CSc1c([N+](=O)[O-])ncn1C [Compound 30] yielded an inhibition at 25 µM ([1]; Homo sapiens, Lymphocyte) of 65%.

Cn1cnc([N+](=O)[O-])c1Sc1ncnc2nc[nH]c12 [I (azathioprine), azathioprine, reference compound] was tested, and the “Toxicity LD25” value (lymphocytes; human) was 42.5, the “Therapeutic index ED50/LD25” value (lymphocytes; ratio of toxicity and immunosuppressive activity) was 5.38 and the inhibition at 25 µM ([1]; Homo sapiens, Lymphocyte) was 79%. For the same molecule, the EC50 ([1]; Homo sapiens, Lymphocyte) was 7.9 µM.
